Values quoted from earlier work, collected in US20240277627A1, “NOVEL FLUOROCHEMICAL CARDIAC RESUSCITATION” (NUVOX PHARMA LLC, priority 2023, published 2024).

FC(F)(F)C(F)(F)C(F)(F)C(F)(F)C(F)(F)F [DDFP, n-dodecafluoropentane]
metabolism / route of clearance (clears from the body via exhalation): not metabolized | terminal half-life (humans): about 90 minutes
